These results are taken from US9650423B2, “Long peptides of 22-45 amino acid residues that induce and/or enhance antigen specific immune responses” (priority 2000, dated 2017).

pIC50: −log10 of the molar value. Read-outs that look alike come from different tables or passages of the source. Residues, ends and D or L forms follow the SMILES beside them. No end group written: not given here.

One test has as its target T1, HLA-DR1 (DRB*0101) (Homo sapiens, UniProt P01903+P01911, A100R/D57E/F55L/F60I/F76Y/I96L/L162R/M171V/P40L/Q125E/R42F/V115G/Y59C).
T1 construct: endogenous in cells; host or cells: LG2.1 B-lymphoblastic cell line, homozygous for HLA-DR
In words: biochemical. Format: binding.

A further test has as its target HLA-DR3 (DRB*0301). In words: HLA-DR-peptide binding assay. On the set-up: species or system human.
The target of a further test is HLA-DR4 (DRB*0401). As to the kind of experiment: HLA-DR-peptide binding assay. More on the design: species or system human.
Another test concerns HLA-DR 1, 2, 3, 4 and 7. As to the kind of experiment: HLA-DR-peptide binding assay, summary over the molecules tested. Conditions: E7 peptides tested on HLA-DR 1, 2, 3, 4 and 7. More on the design: species or system human. As for the experimental part: The analysis of peptide binding to purified DR molecules was performed using N-terminally fluorescence-labelled standard peptides.

Another test concerns the target HLA-DR2 (DRB1*0201). In words: HLA-DR-peptide binding assay. On the set-up: species or system human.
The next test has as its target HLA-DR7 (DRB1*0701) (Homo sapiens, UniProt P01903+P01911, A100R/A102G/A103Q/D57E/D86V/E43K/F76Y/K127E/L162R/M171V/P40G/Q125H/Q99D/R33Q/R42Y/R54Q/S133A/S66F/T210M/V115G/Y107V/Y59L/Y89S). Conditions: read-out: Binding DR7, IC50.
For test [1], the system named is HPV16 E2-specific Th-clones. In words: HPV16 E2-specific Th-clones: peptide recognition. In kind it is cell-based, human. Conditions: clones from long-term E2 peptide stimulated healthy donor PBMC. Here is the method:
Long-term HPV16 E2-specific T-cell cultures and Th-clones were established according to previously described procedures (van der Burg et al. 1999). Briefly, PBMC from healthy HLA-typed donors were stimulated in vitro with the following HPV16 E2 peptides (E2271-300+E2286-315, E2301-330+E2316-345, E2331-365). 15×10^6 PBMC were seeded in 25 cm^2 culture flasks (Nalge Nunc, USA) in 6 ml IMDM supplemented with 10% autologous serum. Peptides were added at a concentration of 5 μg/ml. At day 7.15×10^6 PBMC were added, together with fresh medium and peptides. At day 14 and 21 viable T cells were harvested from the cultures, counted and restimulated with an equal amount of autologous irradiated PBMC and peptide (5 μg/ml). T-cell growth factor (Biotest, Dreieich, Germany) was added 2 days after restimulation at a final concentration of 10%. The T-cell cultures were tested for peptide recognition by proliferation assay at day 28. Peptide-specific T-cell cultures were cloned by limiting dilution and T-cell clones were subsequently tested for the recognition of E2-peptide and -protein-pulsed APC.
Specificity of the Th clones was analysed as described previously (Van der Burg et al. 1999). […] For measurement of proliferation, cultures were pulsed with […] [^3H] thymidine (5 μCi/mM, Amersham, UK) per well for 18 hours. Plates were harvested with a Micro cell Harvester (Skatron, Norway). Filters were packed in plastic covers containing 10 ml of scintillation fluid and subsequently counted on a 1205 Betaplate counter (Wallac, Turku, Finland). HLA-class II blocking experiments were performed using murine monoclonal antibodies: anti-DQ SPV. L3, anti-DR B8. 11.2, and anti-DP B7/21. Supernatants of the proliferation assays were harvested 24 hrs after incubation and analysed for the presence of IFN-γ by ELISA (van der Burg et al., 1999).

Where [2] appears, read: HPV16-E7 22-mer peptides, >70 indicates undetectable binding, read-out: Binding DR3, IC50.
Setting [3] is: HPV16-E7 22-mer peptides, >70 indicates undetectable binding, read-out: Binding DR4, IC50.
Setting [4] is: HPV16-E7 22-mer peptides, >70 indicates undetectable binding, read-out: Binding DR2, IC50.

`CSCC[C@H](NC(=O)[C@H](Cc1ccc(O)cc1)NC(=O)[C@H](CCC(=O)O)NC(=O)[C@H](Cc1c[nH]cn1)NC(=O)[C@H](CC(C)C)NC(=O)[C@@H](NC(=O)[C@@H]1CCCN1C(=O)[C@@H](NC(=O)[C@H](CC(=O)O)NC(=O)CNC(=O)[C@H](Cc1c[nH]cn1)NC(=O)[C@@H](N)CCSC)[C@@H](C)O)[C@@H](C)O)C(=O)N[C@@H](CC(C)C)C(=O)N[C@@H](CC(=O)O)C(=O)N[C@@H](CC(C)C)C(=O)N[C@@H](CCC(N)=O)C(=O)N1CCC[C@H]1C(=O)N[C@@H](CCC(=O)O)C(=O)N[C@H](C(=O)N[C@H](C(=O)N[C@@H](CC(=O)O)C(=O)N[C@@H](CC(C)C)C(=O)O)[C@@H](C)O)[C@@H](C)O` [E7 1-22]: the negative logarithm of the IC50 (pIC50) at HLA-DR1 (DRB*0101) (read-out: Binding DR1, IC50) is less than 4.15; on HLA-DR3 (DRB*0301) (setting [2]), 6.10; at HLA-DR4 (DRB*0401) (setting [3]) it was 4.52; on HLA-DR2 (DRB1*0201) (setting [4]), 5.00; on HLA-DR7 (DRB1*0701), 5.15. The HLA-DR molecules bound result in the test with HLA-DR 1, 2, 3, 4 and 7 was “bound to HLA DR2, 3, 4 and 7”.

As for `CSCC[C@H](NC(=O)[C@@H](N)Cc1ccc(O)cc1)C(=O)N[C@@H](CC(C)C)C(=O)N[C@@H](CC(=O)O)C(=O)N[C@@H](CC(C)C)C(=O)N[C@@H](CCC(N)=O)C(=O)N1CCC[C@H]1C(=O)N[C@@H](CCC(=O)O)C(=O)N[C@H](C(=O)N[C@H](C(=O)N[C@@H](CC(=O)O)C(=O)N[C@@H](CC(C)C)C(=O)N[C@@H](Cc1ccc(O)cc1)C(=O)N[C@@H](CS)C(=O)N[C@@H](Cc1ccc(O)cc1)C(=O)N[C@@H](CCC(=O)O)C(=O)N[C@@H](CCC(N)=O)C(=O)N[C@@H](CC(C)C)C(=O)N[C@@H](CC(N)=O)C(=O)N[C@@H](CC(=O)O)C(=O)N[C@@H](CO)C(=O)N[C@@H](CO)C(=O)O)[C@@H](C)O)[C@@H](C)O` [E7 11-32], the pIC50 is less than 4.15 at HLA-DR1 (DRB*0101) (read-out: Binding DR1, IC50); 4.30 on HLA-DR3 (DRB*0301) (setting [2]); less than 4.15 at HLA-DR4 (DRB*0401) (setting [3]); less than 4.15 on HLA-DR2 (DRB1*0201) (setting [4]); less than 4.15 at HLA-DR7 (DRB1*0701).

As to `CC[C@H](C)[C@H](NC(=O)[C@H](CC(N)=O)NC(=O)[C@H](Cc1ccc(O)cc1)NC(=O)[C@@H](N)Cc1c[nH]cn1)C(=O)N[C@H](C(=O)N[C@H](C(=O)N[C@@H](Cc1ccccc1)C(=O)N[C@@H](CS)C(=O)N[C@@H](CS)C(=O)N[C@@H](CCCCN)C(=O)N[C@@H](CS)C(=O)N[C@@H](CC(=O)O)C(=O)N[C@@H](CO)C(=O)N[C@H](C(=O)N[C@@H](CC(C)C)C(=O)N[C@@H](CCCNC(=N)N)C(=O)N[C@@H](CC(C)C)C(=O)N[C@@H](CS)C(=O)N[C@H](C(=O)N[C@@H](CCC(N)=O)C(=O)N[C@@H](CO)C(=O)N[C@H](C(=O)O)[C@@H](C)O)C(C)C)[C@@H](C)O)[C@@H](C)O)C(C)C` [E7 51-72] (H-HYNIVTFCCKCDSTLRLCVQST-OH; N-terminus and C-terminus assumed), the negative logarithm of the IC50 (pIC50) on HLA-DR3 (DRB*0301) (setting [2]) was 4.30; at HLA-DR4 (DRB*0401) (setting [3]), less than 4.15; on HLA-DR2 (DRB1*0201) (setting [4]) it was less than 4.15. Moreover, in the test with HLA-DR 1, 2, 3, 4 and 7, the HLA-DR molecules bound result is “bound to DR1, 3 and 7”.

Take `CC[C@H](C)[C@H](NC(=O)[C@H](CC(=O)O)NC(=O)[C@@H](NC(=O)[C@H](Cc1c[nH]cn1)NC(=O)[C@@H](NC(=O)[C@H](CO)NC(=O)[C@H](CCC(N)=O)NC(=O)[C@@H](NC(=O)[C@H](CS)NC(=O)[C@H](CC(C)C)NC(=O)[C@H](CCCNC(=N)N)NC(=O)[C@H](CC(C)C)NC(=O)[C@@H](NC(=O)[C@H](CO)NC(=O)[C@H](CC(=O)O)NC(=O)[C@@H](N)CS)[C@@H](C)O)C(C)C)[C@@H](C)O)C(C)C)C(=O)N[C@@H](CCCNC(=N)N)C(=O)N[C@H](C(=O)N[C@@H](CC(C)C)C(=O)N[C@@H](CCC(=O)O)C(=O)N[C@@H](CC(=O)O)C(=O)N[C@@H](CC(C)C)C(=O)O)[C@@H](C)O` [E7 61-82] (H-CDSTLRLCVQSTHVDIRTLEDL-OH; N-terminus and C-terminus assumed): the pIC50 on HLA-DR1 (DRB*0101) (read-out: Binding DR1, IC50) is less than 4.15; at HLA-DR3 (DRB*0301) (setting [2]), 4.19; at HLA-DR4 (DRB*0401) (setting [3]), less than 4.15; on HLA-DR2 (DRB1*0201) (setting [4]), 4.82; at HLA-DR7 (DRB1*0701), less than 4.15.

Take `CC[C@H](C)[C@H](NC(=O)CNC(=O)[C@H](CC(C)C)NC(=O)[C@@H](NC(=O)CNC(=O)[C@H](CCSC)NC(=O)[C@H](CC(C)C)NC(=O)[C@H](CC(C)C)NC(=O)[C@H](CC(=O)O)NC(=O)[C@H](CCC(=O)O)NC(=O)[C@H](CC(C)C)NC(=O)[C@@H](NC(=O)[C@@H](N)CCCNC(=N)N)[C@@H](C)O)[C@@H](C)O)C(=O)N[C@H](C(=O)N[C@@H](CS)C(=O)N1CCC[C@H]1C(=O)N[C@H](C(=O)N[C@@H](CS)C(=O)N[C@@H](CO)C(=O)N[C@@H](CCC(N)=O)C(=O)N[C@@H](CCCCN)C(=O)N1CCC[C@H]1C(=O)O)[C@@H](C)CC)C(C)C` [E7 77-98] (H-RTLEDLLMGTLGIVCPICSQKP-OH; N-terminus and C-terminus assumed): the pIC50 was 4.34 on HLA-DR1 (DRB*0101) (read-out: Binding DR1, IC50, HPV16-E7 22-mer peptides, >70 indicates undetectable binding); less than 4.15 on HLA-DR3 (DRB*0301) (setting [2]); less than 4.15 at HLA-DR4 (DRB*0401) (setting [3]); 4.66 at HLA-DR2 (DRB1*0201) (setting [4]); 6.05 at HLA-DR7 (DRB1*0701) (HPV16-E7 22-mer peptides, >70 indicates undetectable binding). Further, the HLA-DR molecules bound result with HLA-DR 1, 2, 3, 4 and 7 is “bound to DR1, 2 and DR7”.

Regarding DLYCYEQLNDSSEEEDEIDGPA [E7 21-42], the pIC50 was less than 4.15 on HLA-DR1 (DRB*0101) (read-out: Binding DR1, IC50); less than 4.15 at HLA-DR3 (DRB*0301) (setting [2]); less than 4.15 on HLA-DR4 (DRB*0401) (setting [3]); 4.92 at HLA-DR2 (DRB1*0201) (setting [4]); less than 4.15 at HLA-DR7 (DRB1*0701).

In the case of “E2 51-70: Th epitope peptide, amino acids 51-70 of HPV16 E2 (FKHINHQVVPTLAVSKNKAL)”, the “recognition by E2-specific CD4+ Th clones and HLA restriction” value (“recognition” below) in test [1] is recorded as “in a HLA-DR4 restricted manner”.

Turning to “E2 61-75: Th epitope peptide, amino acids 61-75 of HPV16 E2 (TLAVSKNKALQAIEL; UniProt P03120 61-75, looked up, fragment)”, the “recognition” value in test [1] is reported as “reacted against”.

In the case of “E2 311-325: Th epitope peptide, amino acids 311-325 of HPV16 E2 (LYTAVSSTWHWTGHN)”, the “recognition” value in test [1] was “in the context of HLA-DQ6 (1)”.

For the molecule “E2 351-365: Th epitope peptide, amino acids 351-365 of HPV16 E2 (KIPKTITVSTGFMSI)”, in test [1], the “recognition” value is “in a DR1-restricted manner”.

Regarding “LRYRFKKHCTLYTAVSSTWHWTGHNVKHKS [E2 301-330]”, the pIC50 is 5.22 at HLA-DR1 (DRB*0101) (HPV16-E2 peptides, >70 represents undetectable binding, read-out: Binding affinity DR1, IC50); less than 4.15 at HLA-DR3 (DRB*0301) (HPV16-E2 peptides, >70 represents undetectable binding, read-out: Binding affinity DR3, IC50); 5.00 at HLA-DR4 (DRB*0401) (HPV16-E2 peptides, >70 represents undetectable binding, read-out: Binding affinity DR4, IC50); 5.10 at HLA-DR2 (DRB1*0201) (HPV16-E2 peptides, >70 represents undetectable binding, read-out: Binding affinity DR2, IC50). Further, in test [1], the “recognition” value is on record as “both Th-clones recognized”.

In general, pIC50 refers to −log10 of the IC50, conventionally taken in molar units.
